Here are results for 88 compounds from a melting point compilation (Tetko et al.; mined from patent text by program, amines drawn as free bases though some values may be those of a salt).

The term melting point denotes the temperature of the solid-liquid transition.

Compound `Cc1ccc(CCOc2ccnc3c(F)cccc23)cc1` gave a melting point of 89 to 90 °C.

On to `COC(=O)C(C#N)=CC(C)=CN(C)C`, for which the melting point was 163 to 164 °C.

With `CN1CCN(c2cccc3ccc(-n4cnc5ccccc54)cc23)CC1`, the melting point was in the range of 148 to 150 °C.

`COC(=O)C1=C(C)NC(C)=C(S(=O)(=O)c2ccccc2)C1c1ccccc1[N+](=O)[O-]` (stereo not drawn) had a melting point of 203 °C.

The compound `CNc1nc(N)nc(N)n1` came in with a melting point of 269 °C.

`O=C(Nc1ccc(-c2ccccc2)cc1C(=O)O)OCc1cc2cc(-c3ccccc3)ccc2o1`: the melting point was found to be 226 °C.

In turn, `O=C(O)CCCc1ccc(-c2cccc(Cl)c2Cl)cc1` yielded a melting point of 70 to 71 °C.

Consider `CC(C)(C)OC(=O)Nc1ccc(OC2CNC2)cc1`, for which the melting point is 184 to 186 °C.

As to `CC(C)Cn1c(=O)n(C)c(=O)c2c(CCC(=O)O)c(Cc3ccccc3C(F)(F)F)sc21`, the melting point fell in the range of 165 to 167 °C.

`C#CCOC(=O)c1ccc(SC(C)CCCC(C)C)cc1` (stereo not drawn): the melting point was 130 to 131 °C.

In the case of `CCOc1ccc(C)c(NCc2ccccc2)c1`, the melting point lay in the range of 69 to 71 °C.

`CC(=O)N[C@@H](C)C(=O)NCCc1ccc(O)c(O)c1` came in with a melting point of 200 to 202 °C.

The compound `CCC(C)OC(=O)C(C(=O)Nc1nc(C)cs1)=C1SCS1` (stereo not drawn) gave a melting point of 153 to 154 °C.

In the case of `Cc1cc2c(cc1C)-n1c(C)nnc1C=C(c1ccc(-n3c(C)nc4cnccc43)cc1)N2`, the melting point fell in the range of 294 to 296 °C.

`Cc1cc(C)c2c(=O)c(N)coc2c1` gave a melting point of 120 to 121 °C.

In turn, `CCC(=CC(CNC(=O)c1ccc(NS(C)(=O)=O)nc1)=NO)C(C)[N+](=O)[O-]` (stereo not drawn) returned a melting point of 131 to 136 °C.

Compound `NC(=O)c1nc(-c2cccc(O)c2)nc2c1[nH]c(=O)n2-c1ccccc1Oc1ccccc1` returned a melting point of 329 to 331 °C.

For `Brc1ccc(C2=CCN(CCSCc3c[nH]c4ccccc34)CC2)cc1`, the melting point fell in the range of 166 to 167 °C.

The compound `CC(C)(C)c1cc(C=Nn2ccnc2N2CCOCC2)cc(C(C)(C)C)c1O` came in with a melting point of 185 to 187 °C.

Compound `N#Cc1ccc(-c2ccc(Cl)cc2Cl)c(F)c1` returned a melting point of 65 to 67 °C.

`CC(=O)OC1CSC(Oc2cccnc2)C(OC(C)=O)C1OC(C)=O` (stereo not drawn): the melting point was 147 °C.

Consider `CCCCc1c(C)c2ccc(OCCCN3CCC(NC(=O)c4ccccc4)CC3)cc2oc1=O`, for which the melting point was 170 to 171 °C.

`COc1cc(NC(C)=O)c2c(c1)OC(C)C2` (stereo not drawn) had a melting point of 104 °C.

`N=C(N)c1ccc(NC(=O)NC(=O)c2ccc(OCC(=O)O)cc2)cc1` registered a melting point of 285 to 288 °C.

Take `CCOC(=O)c1ccc(NCCc2ccc(OCc3ccccc3)cc2)cc1`: the melting point is 94 to 97 °C.

The compound `COC(=O)CCn1cc(-c2cccnc2)c2cc([N+](=O)[O-])ccc21` returned a melting point of 123 to 125 °C.

`COC(=O)Cc1ccccc1OCc1cc(OCc2nc(-c3ccccc3)sc2C)no1` had a melting point of 108 to 109 °C.

In the case of `CN1CCc2c(Cl)ccc3c4c(n(c23)CC1)CCCC4`, the melting point is 128 to 130 °C.

For the compound `CC(C)(C(=O)O)c1ccc(C(=O)Nc2cn3cc(-c4ccsc4)ccc3n2)cc1`, the melting point is 304 to 306 °C.

With `CC(O)C(CCCc1ccccc1)n1ncc2c(=O)[nH]c(Cc3ccc(Cl)c(Cl)c3)nc21` (stereo not drawn), the melting point stood at 161 °C.

For the compound `O=C(O)c1c([N+](=O)[O-])ccc2c1OCCO2`, the melting point worked out at 188 °C.

`COc1ccc2c(c1)Nc1cccc(SC)c1S2`: the melting point was in the range of 152 to 154 °C.

The compound `O=C(O)c1cc([N+](=O)[O-])ccc1OC(F)(F)F` showed a melting point of 134 to 135 °C.

`Cc1nc2c3c(c(C(=O)NCC(O)CO)cc2n1C)CCC(c1ccccc1)O3` (stereo not drawn) showed a melting point of 268 to 270 °C.

Turning to `Cc1[nH]c(=S)n(Nc2cccc(Cl)c2)c1-c1cccc(Br)c1`, the melting point came to 196 °C.

`C=C(C(=O)NCc1ccccc1)c1ccccc1` displayed a melting point of 84 to 86 °C.

`Fc1ccccc1CN[C@H]1CCCN[C@H]1c1ccccc1` (relative stereo): the melting point is more than 260 °C.

Turning to `CCOC(=O)c1c(C)nc2nccnc2c1NCCCN(C)C`, the melting point fell in the range of 42 to 44 °C.

In turn, `O=C(CCN1CCCC1)Nc1ccc2[nH]c3ccc(NC(=O)CCN4CCCC4)cc3c(=O)c2c1` showed a melting point of more than 320 °C.

`O=C(O)CN1C(=O)C(=Cc2ccc(OCCc3ccc(F)cc3)c(OCc3ccccc3)c2)SC1=S` returned a melting point of 221 °C.

On to `COC(=O)c1cccc2[nH]c(Sc3cccc4c(=O)cc[nH]c34)nc12`, for which the melting point was more than 250 °C.

Compound `CC(C)Cn1nccc1-c1nn(-c2cccc(C(F)(F)F)c2)ccc1=O` yielded a melting point of 120 to 121 °C.

Regarding `O=C(O)C(O)c1ccc2ccccc2c1` (racemic), the melting point was in the range of 164 to 166 °C.

The compound `COC(=O)c1nc(Cl)c(F)c(N)c1Cl` displayed a melting point of 128 to 131 °C.

Turning to `CCc1nc(C)cn1-c1cc2c(cc1C(F)(F)F)[nH]c(=O)c1nnc(CP(=O)(O)O)n12`, the melting point was more than 300 °C.

`COC(=O)C(=O)c1c(F)c(F)c(OCCOc2ccc3ccccc3c2)c(F)c1F` returned a melting point of 69 to 71 °C.

For the compound `CC(C)NC(=O)c1c(NC(=O)c2cc(C(F)(F)F)nn2-c2ncccc2Cl)ccc2cn[nH]c12`, the melting point fell in the range of 203 to 205 °C.

Turning to `CCC(=O)c1c(-c2ccncc2)[nH]c(-c2ccncc2)c1C`, the melting point was in the range of 237 to 238 °C.

In turn, `Nc1ccccc1C(=O)NO` showed a melting point of 140 to 142 °C.

With `N#Cc1c(N2CCCCC2)cc(-c2cccc3ccccc23)c2c1Cc1ccccc1-2`, the melting point was 148 to 149 °C.

`Cc1cc(C)c(COC2CC(n3cc(F)c(=O)[nH]c3=O)OC2CO)c(C)c1` (stereo not drawn): the melting point was in the range of 179 to 181 °C.

Compound `C=Cc1ccc(CNc2ccc(Nc3ccccc3)cc2)cc1` showed a melting point of 143 °C.

In turn, `COC(=O)CCSCCNC(=O)/C=C/C=C/c1ccccc1` displayed a melting point of 58 to 60 °C.

Turning to `C1C2CC3CC1CC(C2)C3=C1C2CC3CC(C2)CC1C3`, the melting point lay in the range of 185 to 186 °C.

Compound `Brc1cc(Br)c(-c2ccccc2)nn1` showed a melting point of 145 to 146 °C.

As to `COc1cc2c(c(OC)c1/C=C/c1ccc(CN)cc1)C(C)(C)CCC2(C)C`, the melting point was 59 to 60 °C.

In turn, `O=C(Nc1ccc(S(=O)(=O)c2ncccn2)cc1)C(O)(C(F)F)C(F)F` yielded a melting point of 209 to 210 °C.

On to `CCCc1ncc(C(=O)OCC)c(NCc2ccc(-c3ccccc3-c3nnn[nH]3)cc2)n1`, for which the melting point lay in the range of 146 to 147 °C.

Consider `C#CCOc1cc(Oc2ccc(Cl)cc2)ncn1`, for which the melting point came to 100 °C.

For `O=c1[nH]ccc2c1c(O)nc1cc(Cl)ccc12`, the melting point lay within 340 to 342 °C.

For the compound `O=C1NC(=O)C2(c3ccccc3)CC1C2`, the melting point lay within 217 to 218 °C.

Turning to `C=CC[C@H]1CC(C(=O)OC)=C[C@H](N=[N+]=[N-])[C@H]1OS(C)(=O)=O`, the melting point fell in the range of 70 to 72 °C.

Regarding `O=C(O)c1cccc(-c2nc(-c3ccc(Cl)cc3)cs2)c1`, the melting point lay in the range of 265 to 266 °C.

`CC(CC(=O)NC(Cc1c[nH]c2ccccc12)C(=O)CCc1cc(C(F)(F)F)cc(C(F)(F)F)c1)c1ccccc1` (stereo not drawn) gave a melting point of 133 to 137 °C.

`O=C(c1cccc(-c2cc3ccccc3n2S(=O)(=O)c2ccccc2)c1)c1cc2ccccc2n1S(=O)(=O)c1ccccc1`: the melting point is 189 to 190 °C.

`CC(C)NC(=O)C1=C(C(=O)Nc2cc(OC3CCCC3)c(Cl)cc2F)CCCC1`: the melting point was 169 to 171 °C.

With `CCOC(=O)c1ccc(Nc2ncccc2NS(=O)(=O)c2ccc(OC)cc2)cc1`, the melting point lay in the range of 172 to 173 °C.

On to `Cc1c(C(=O)Nc2ccc(N(CCO)CCO)c(C#N)c2)cnn1-c1ccc(F)cc1`, for which the melting point was 158 to 159 °C.

For the compound `O=C(O)c1cccc2ccc(CBr)cc12`, the melting point was 210 to 211 °C.

`CCc1csc(Cc2ccc(NC(=O)/C=C/c3cnn(C)c3-c3ccc(F)cc3)cc2)n1` had a melting point of 211 to 212 °C.

Turning to `C=CCC1(CCNC(=O)C2CCC2)c2cc(OC)ccc2CCC12OCCO2` (stereo not drawn), the melting point lay within 99 to 101 °C.

In turn, `NS(=O)(=O)c1ccc(NC(=O)[C@@H]2CCCN2C(=O)OCc2ccccc2)cc1` came in with a melting point of 165 to 166 °C.

For the compound `CCCc1nc2c(C#N)ncc(C)c2[nH]1`, the melting point lay within 239 to 242 °C.

`N#Cc1c(-c2ccc(Cl)cc2)[nH]c([N+](=O)[O-])c1Br` displayed a melting point of 180 to 185 °C.

For the compound `CCCCN(CCCC)c1ccc(C=C2C(=C(C#N)C#N)c3ccccc3C2=C(C#N)C#N)c(OC)c1`, the melting point was 195 to 198 °C.

The compound `CC(O)(C(=O)O)c1ccc2c(c1)[nH]c1ccc(Cl)cc12` (stereo not drawn) registered a melting point of 218 to 220 °C.

`COc1cc(N(C)C)ccc1C=Nc1cc(Cl)c(N=CN(C)C)c(Cl)c1` came in with a melting point of 137 to 139 °C.

The compound `O=C1NCCNC1c1cn(Cc2ccccc2Cl)c2ccccc12` (stereo not drawn) yielded a melting point of 181 °C.

In the case of `Cn1cc(C(=O)Nc2ccccc2OC(F)(F)C(F)F)c(C(F)F)n1`, the melting point was in the range of 117 to 119 °C.

For the compound `CC(C)n1c(=O)n(CC2CO2)c2cc(-c3ncc(C(F)(F)F)cc3Cl)ccc21` (stereo not drawn), the melting point was 110 to 111 °C.

The compound `Cc1ccc(S(=O)(=O)NCC(O)(Cn2cncn2)c2ccc(F)cc2F)cc1` (stereo not drawn) had a melting point of 130 to 136 °C.

`CCOC(=O)C(C)(C)Oc1ccc2c(c1)C=C(c1nccn1C)CO2` registered a melting point of 210 to 215 °C.

Consider `CCCCCCCCCCCNC(=S)NCCCCCCCCCCC`, for which the melting point fell in the range of 70 to 72 °C.

With `CC(N)c1nnc(Cc2cccc3ccccc23)[nH]c1=O` (stereo not drawn), the melting point was 180 °C.

Turning to `CCC1c2ccc(C#N)n2-c2ccc(F)cc2N1S(=O)(=O)c1ccc(O)c(C)c1` (stereo not drawn), the melting point is 192 to 194 °C.

The compound `NC(=O)Nc1ccc(C2=NNC(=O)Cc3cc4c(cc32)OCO4)cc1` registered a melting point of 238 to 241 °C.

Consider `CS(=O)(=O)c1ccc(-c2cnn(Cc3ccccc3C(F)(F)F)c(=O)c2-c2ccc(F)cc2)cc1`, for which the melting point fell in the range of 87 to 90 °C.

Compound `CCN1CCN(Cc2nc3sc4c(c3c(=O)n2-c2ccccc2Cl)CCCC4)CC1` returned a melting point of 140 to 142 °C.
